Laboratory results published in ChEMBL document CHEMBL1156048, “Design and optimisation of selective serotonin re-uptake inhibitors with high synthetic accessibility: part 2” (Bioorg Med Chem Lett, 2009).
pIC50, pKi: −log10 of the molar value.

Tests used:
Type in all cases: cell-based
[1] = biological target: Sodium-dependent serotonin transporter (Homo sapiens, UniProt P31645); assay: Inhibition of serotonin reuptake at human serotonin transporter expressed in HEK293 cells after 5 mins by scintillation counting
[2] = biological target: Sodium-dependent noradrenaline transporter (Homo sapiens, UniProt P23975); assay: Inhibition of noradrenaline reuptake at human noradrenaline transporter expressed in HEK293 cells after 15 mins by scintillation counting
[3] = biological target: Sodium-dependent dopamine transporter (Homo sapiens, UniProt Q01959); assay: Inhibition of dopamine reuptake at human dopamine transporter expressed in HEK293 cells after 5 mins by scintillation counting
[4] = biological target: Voltage-gated inwardly rectifying potassium channel KCNH2 (Homo sapiens, UniProt Q12809); assay: Displacement of [3H]dofetilide from human ERG expressed in HEK293 cells
Voltage-gated inwardly rectifying potassium channel KCNH2, sequence (Q12809 whole entry): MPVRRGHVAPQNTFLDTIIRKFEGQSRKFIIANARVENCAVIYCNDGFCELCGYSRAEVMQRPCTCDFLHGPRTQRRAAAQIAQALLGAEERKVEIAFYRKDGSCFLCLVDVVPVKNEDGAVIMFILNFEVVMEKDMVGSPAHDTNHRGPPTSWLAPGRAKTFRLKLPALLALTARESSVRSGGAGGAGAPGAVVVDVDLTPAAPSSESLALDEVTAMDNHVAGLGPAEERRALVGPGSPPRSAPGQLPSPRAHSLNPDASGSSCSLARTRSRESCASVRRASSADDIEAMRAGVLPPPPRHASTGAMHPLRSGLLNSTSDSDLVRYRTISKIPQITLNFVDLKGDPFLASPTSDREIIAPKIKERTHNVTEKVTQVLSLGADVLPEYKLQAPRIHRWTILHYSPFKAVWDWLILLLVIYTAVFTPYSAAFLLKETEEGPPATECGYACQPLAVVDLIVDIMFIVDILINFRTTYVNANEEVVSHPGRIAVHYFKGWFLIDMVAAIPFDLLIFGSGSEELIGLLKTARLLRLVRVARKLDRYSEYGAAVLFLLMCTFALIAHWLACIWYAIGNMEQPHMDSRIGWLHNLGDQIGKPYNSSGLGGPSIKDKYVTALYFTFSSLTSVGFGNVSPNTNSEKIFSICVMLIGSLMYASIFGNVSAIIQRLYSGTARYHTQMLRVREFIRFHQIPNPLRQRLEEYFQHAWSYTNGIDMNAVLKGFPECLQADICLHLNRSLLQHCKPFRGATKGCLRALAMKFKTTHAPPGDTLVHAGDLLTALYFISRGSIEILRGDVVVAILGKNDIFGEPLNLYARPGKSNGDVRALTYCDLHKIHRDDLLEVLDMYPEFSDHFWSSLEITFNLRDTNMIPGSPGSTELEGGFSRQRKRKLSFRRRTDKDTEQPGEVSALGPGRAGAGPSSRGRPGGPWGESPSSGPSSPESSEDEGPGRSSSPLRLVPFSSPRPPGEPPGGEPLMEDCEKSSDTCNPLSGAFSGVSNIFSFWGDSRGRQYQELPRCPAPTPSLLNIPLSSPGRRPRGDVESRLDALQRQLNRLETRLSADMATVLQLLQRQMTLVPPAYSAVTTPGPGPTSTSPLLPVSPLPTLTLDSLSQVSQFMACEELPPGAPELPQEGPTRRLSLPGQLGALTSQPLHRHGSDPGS

Sodium-dependent noradrenaline transporter, sequence (P23975 whole entry): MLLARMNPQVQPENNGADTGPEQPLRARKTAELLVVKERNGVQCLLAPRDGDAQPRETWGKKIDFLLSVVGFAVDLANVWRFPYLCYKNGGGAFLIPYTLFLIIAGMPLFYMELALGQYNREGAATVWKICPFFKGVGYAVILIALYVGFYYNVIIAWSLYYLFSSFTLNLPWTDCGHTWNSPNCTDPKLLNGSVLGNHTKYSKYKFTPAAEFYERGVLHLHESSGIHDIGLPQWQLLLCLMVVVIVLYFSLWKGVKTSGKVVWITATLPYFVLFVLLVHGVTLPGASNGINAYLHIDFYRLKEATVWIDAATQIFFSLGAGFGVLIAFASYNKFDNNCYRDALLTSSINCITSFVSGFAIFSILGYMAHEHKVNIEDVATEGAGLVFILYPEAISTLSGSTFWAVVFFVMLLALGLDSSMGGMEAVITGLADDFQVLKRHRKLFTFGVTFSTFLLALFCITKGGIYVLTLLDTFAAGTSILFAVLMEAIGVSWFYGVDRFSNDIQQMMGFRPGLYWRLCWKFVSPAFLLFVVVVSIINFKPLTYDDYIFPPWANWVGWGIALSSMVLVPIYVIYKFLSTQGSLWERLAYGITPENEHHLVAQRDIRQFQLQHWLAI
Sodium-dependent dopamine transporter, sequence (Q01959 whole entry): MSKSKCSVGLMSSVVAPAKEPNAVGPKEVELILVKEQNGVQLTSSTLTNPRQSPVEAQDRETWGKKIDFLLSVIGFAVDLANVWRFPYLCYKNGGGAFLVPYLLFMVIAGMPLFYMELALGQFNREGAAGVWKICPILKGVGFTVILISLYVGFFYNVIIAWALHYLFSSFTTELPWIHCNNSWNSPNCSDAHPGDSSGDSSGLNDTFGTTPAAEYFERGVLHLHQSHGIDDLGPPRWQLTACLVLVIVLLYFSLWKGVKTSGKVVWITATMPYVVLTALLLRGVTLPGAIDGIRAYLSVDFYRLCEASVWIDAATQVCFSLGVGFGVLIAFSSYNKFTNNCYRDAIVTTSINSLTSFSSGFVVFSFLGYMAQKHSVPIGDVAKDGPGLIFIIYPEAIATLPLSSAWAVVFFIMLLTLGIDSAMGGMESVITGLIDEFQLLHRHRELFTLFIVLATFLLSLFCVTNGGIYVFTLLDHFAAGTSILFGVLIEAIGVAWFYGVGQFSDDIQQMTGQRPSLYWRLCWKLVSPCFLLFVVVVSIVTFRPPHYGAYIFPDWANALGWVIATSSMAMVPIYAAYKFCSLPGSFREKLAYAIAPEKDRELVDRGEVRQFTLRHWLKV
Sodium-dependent serotonin transporter, sequence (P31645 whole entry): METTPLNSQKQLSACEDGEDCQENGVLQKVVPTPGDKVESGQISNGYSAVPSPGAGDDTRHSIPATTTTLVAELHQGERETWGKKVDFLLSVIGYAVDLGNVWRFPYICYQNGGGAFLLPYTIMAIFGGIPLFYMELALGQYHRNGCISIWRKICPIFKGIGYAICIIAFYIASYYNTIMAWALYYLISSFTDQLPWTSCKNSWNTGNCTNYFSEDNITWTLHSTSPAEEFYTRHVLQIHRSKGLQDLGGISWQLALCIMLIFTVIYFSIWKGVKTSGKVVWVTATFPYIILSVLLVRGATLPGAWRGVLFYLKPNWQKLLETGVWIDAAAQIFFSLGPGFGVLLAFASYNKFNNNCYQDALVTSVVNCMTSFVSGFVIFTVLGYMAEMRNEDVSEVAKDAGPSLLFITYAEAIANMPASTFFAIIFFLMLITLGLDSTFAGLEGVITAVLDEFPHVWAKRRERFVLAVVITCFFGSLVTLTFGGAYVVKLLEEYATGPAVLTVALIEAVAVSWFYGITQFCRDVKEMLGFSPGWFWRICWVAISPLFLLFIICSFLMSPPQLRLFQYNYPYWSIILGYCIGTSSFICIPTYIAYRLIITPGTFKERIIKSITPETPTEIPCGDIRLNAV

| SMILES | pIC50 [1] | pIC50 [2] | pIC50 [3] | pKi [4] |
| --- | --- | --- | --- | --- |
| Cc1c(C(=O)N(C(C)C)[C@@H]2CCNC2)ccc(Cl)c1Cl | 8.15 | 5.24 | < 4.40 | – |
| CS(=O)(=O)N(Cc1ccc2ccccc2c1)[C@@H]1CCNC1 | 7.77 | 5.15 | < 4.17 | 5.38 |
| O=C(c1ccc2ccccc2c1)N(C1CCCC1)[C@@H]1CCNC1 | 7.92 | 6.17 | 5.13 | – |
| Cc1c(C(=O)N(C)[C@@H]2CCNC2)ccc(Cl)c1Cl | 7.24 | – | – | – |
| CC(C)CN(C(=O)c1ccc2ccccc2c1)[C@@H]1CCNC1 | 8.30 | 5.92 | – | 5.15 |
| CCCN(C(=O)c1ccc2ccccc2c1)C1CCNCC1 | 7.55 | < 4.40 | < 4.40 | – |
| CC(=O)N(Cc1ccc2ccccc2c1)C1CCNCC1 | 8.35 | 5.05 | 5.82 | < 4.70 |
| O=C(c1ccc2ccccc2c1)N(C1CCC1)[C@@H]1CCNC1 | 8.05 | 5.22 | 5.24 | – |
| CCC(=O)N(Cc1ccc2ccccc2c1)C1CCNCC1 | 9.00 | 5.89 | 6.47 | 4.92 |
| c1cnc(N(Cc2ccc3ccccc3c2)C2CCNCC2)nc1 | 8.00 | 5.92 | 5.89 | – |
| CC(=O)N(Cc1ccc2ccccc2c1)[C@@H]1CCNC1 | 8.28 | 6.14 | < 4.92 | – |
| Cc1c(CN([C@@H]2CCNC2)S(C)(=O)=O)ccc2cc(F)ccc12 | 8.34 | 6.13 | < 4.55 | 5.80 |
| CC(C)CN(C(=O)c1ccc2ccccc2c1)[C@H]1CCNC1 | 8.52 | 7.62 | 6.13 | – |
| CS(=O)(=O)N(Cc1ccc2ccccc2c1)C1CCNCC1 | 8.46 | 5.60 | 5.31 | 5.49 |
| CC(C)N(C(=O)c1ccc2ccccc2c1)[C@@H]1CCNC1 | 7.82 | 5.12 | < 4.85 | – |
| c1ccc2cc(COC3CCNCC3)ccc2c1 [LITOXETINE] | 8.23 | 5.85 | 5.17 | – |
| O=C(c1ccc2ccccc2c1)N(C1CCC1)C1CCNCC1 | 8.00 | < 4.40 | < 4.40 | < 5.00 |
| CS(=O)(=O)N(Cc1ccc2ccccc2c1)[C@H]1CCNC1 | 8.46 | 6.43 | 5.55 | 4.96 |
| O=C(NC1CCNCC1)c1ccc2ccccc2c1 | < 6.40 | – | – | – |
| Cc1c(C(=O)N(CC(C)(C)C)[C@H]2CCNC2)ccc(Cl)c1Cl | 7.82 | 6.45 | < 4.55 | – |
| CCC(=O)N(Cc1ccc2ccccc2c1)[C@@H]1CCNC1 | 8.62 | 6.65 | 6.58 | – |
| CN(C(=O)c1ccc(Cl)c(Cl)c1)[C@@H]1CCNC1 | < 6.40 | – | – | – |
| CCN(C(=O)c1ccc(Cl)c(Cl)c1C)[C@@H]1CCNC1 | 8.00 | 4.76 | < 4.40 | – |
